Measured values: US20260262643A1, “HERBICIDAL BENZOXAZINES” (FMC CORPORATION, priority 2022, published 2026)
Like-named read-outs stand apart in the source and are kept apart here.

Columns and labels:
galium = assay: Test A postemergence; type: in vivo, Galium aparine; conditions: Galium, post-emergence, 240 h, postemergence, 10 days, 0 to 100 scale (0 no effect, 100 complete control); for pest or weed control at 125 g/ha: 125 g ai/ha; for pest or weed control at 500 g/ha: 500 g ai/ha
In short: (§1)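 Visual injury ratings on a 0–100 scale (100 = complete control) versus untreated controls, taken 10 days after treatment in greenhouse. Preemergence: directed soil spray onto seeded loam/sand. Postemergence: foliar application at one- to two-leaf stage, plants 2–10 cm. Formulation: non-phytotoxic solvent plus surfactant.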

wheat = assay: Test A preemergence; type: in vivo, Triticum aestivum; conditions: Triticum aestivum, pre-emergence, 240 h, read-out: Plant response rating, Wheat; for plant injury at 125 g/ha: 125 g ai/ha; for plant injury at 500 g/ha: 500 g ai/ha
In short: as §1

foxtail, giant = assay: Test A preemergence; type: in vivo, Setaria faberi; conditions: Setaria faberi, pre-emergence, 240 h, read-out: Plant response rating, Foxtail, Giant; for pest or weed control at 125 g/ha: 125 g ai/ha; for pest or weed control at 500 g/ha: 500 g ai/ha
In short: as §1

soybean = assay: Test A postemergence; type: in vivo, Glycine max; conditions: Glycine max, post-emergence, 240 h, postemergence, 10 days, 0 to 100 scale (0 no effect, 100 complete control); for plant injury at 500 g/ha: 500 g ai/ha, visual injury, read-out: Plant response rating, Soybean; for plant injury at 125 g/ha: 125 g ai/ha, read-out: Soybean plant response rating
In short: as §1

sedge, umbrella = assay: Test B flooded paddy test; type: in vivo, Cyperus difformis; conditions: Cyperus difformis, 312 h; 250 g ai/ha, Flood, 13 days, 0 to 100 scale (0 no effect, 100 complete control); read-out: Plant response rating, Sedge, Umbrella
In short: (§2)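 Species grown to 2-leaf stage; pots flooded 3 cm above soil and compound applied directly to paddy water, depth maintained throughout. After 13 days in greenhouse, plants visually rated against controls on 0–100 scale (0 no effect, 100 complete control); dash means no result.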

corn = assay: Test A preemergence; type: in vivo, Zea mays; conditions: Zea mays, pre-emergence, 240 h; for Corn plant response rating (crop injury, 0 = no effect, 100 = complete kill) at 125 g/ha: 125 g ai/ha; for Corn plant response rating (crop injury, 0 = no effect, 100 = complete kill) at 500 g/ha: 500 g ai/ha
In short: as §1

kochia [1] = assay: Test A preemergence; type: in vivo, Bassia scoparia; conditions: Bassia scoparia, pre-emergence, 240 h, read-out: Plant response rating, Kochia; for pest or weed control at 125 g/ha: 125 g ai/ha; for pest or weed control at 500 g/ha: 500 g ai/ha
In short: as §1

horseweed = assay: Test A postemergence; type: in vivo, Erigeron canadensis; conditions: Erigeron canadensis, post-emergence, 240 h, postemergence, 10 days, 0 to 100 scale (0 no effect, 100 complete control); for pest or weed control at 125 g/ha: 125 g ai/ha; for pest or weed control at 500 g/ha: 500 g ai/ha
In short: as §1

goosegrass = assay: Test A preemergence; type: in vivo, Eleusine indica; conditions: Eleusine indica, pre-emergence, 240 h, read-out: Plant response rating, Goosegrass; for pest or weed control at 125 g/ha: 125 g ai/ha; for pest or weed control at 500 g/ha: 500 g ai/ha
In short: as §1

ryegrass, Italian = assay: Test A postemergence; type: in vivo, Lolium multiflorum; conditions: Lolium multiflorum, post-emergence, 240 h, postemergence, 10 days, 0 to 100 scale (0 no effect, 100 complete control); for pest or weed control at 500 g/ha: 500 g ai/ha, visual injury, read-out: Plant response rating, Ryegrass, Italian; for pest or weed control at 125 g/ha: 125 g ai/ha, read-out: Ryegrass, Italian plant response rating
In short: as §1

rice = assay: Test B flooded paddy test; type: in vivo, Oryza sativa; conditions: Oryza sativa, 312 h; 250 g ai/ha, Flood, 13 days, 0 to 100 scale (0 no effect, 100 complete control); read-out: Plant response rating, Rice
In short: as §2

barnyardgrass = assay: Test B flooded paddy test; type: in vivo, Echinochloa crus-galli; conditions: Echinochloa crus-galli, 312 h, 250 g ai/ha, Flood, 13 days, 0 to 100 scale (0 no effect, 100 complete control); read-out: Plant response rating, Barnyardgrass
In short: as §2

kochia [2] = assay: Test A postemergence; type: in vivo, Bassia scoparia; conditions: Bassia scoparia, post-emergence, 240 h, postemergence, 10 days, 0 to 100 scale (0 no effect, 100 complete control); for pest or weed control at 125 g/ha: 125 g ai/ha; for pest or weed control at 500 g/ha: 500 g ai/ha
In short: as §1

oat, wild = assay: Test A preemergence; type: in vivo, Avena fatua; conditions: Avena fatua, pre-emergence, 240 h, read-out: Plant response rating, Oat, Wild
In short: as §1

[3] = visual injury, read-out: Plant response rating, Galium
[4] = visual injury after 10 days, 0 to 100 scale, 0 is no effect, 100 is complete control
[5] = 0 to 100 scale (0 no effect, 100 complete control), 10 days
[6] = visual injury, read-out: Plant response rating, Horseweed
[7] = visual injury, read-out: Plant response rating, Kochia
[8] = read-out: Galium plant response rating
[9] = read-out: Horseweed plant response rating
[10] = read-out: Kochia plant response rating

| Compound | pest or weed control at 500 g/ha (galium; [3]) | plant injury at 125 g/ha (wheat; [4]) | plant injury at 500 g/ha (wheat; [5]) | pest or weed control at 125 g/ha (foxtail, giant; [4]) | pest or weed control at 500 g/ha (foxtail, giant; [5]) | plant injury at 500 g/ha (soybean) | pest or weed control at 250 g/ha (sedge, umbrella) | Corn plant response rating (crop injury, 0 = no effect, 100 = complete kill) at 125 g/ha (corn; [4]) | Corn plant response rating (crop injury, 0 = no effect, 100 = complete kill) at 500 g/ha (corn; [5]) | pest or weed control at 125 g/ha (kochia [1]; [4]) | pest or weed control at 500 g/ha (kochia [1]; [5]) | pest or weed control at 500 g/ha (horseweed; [6]) | pest or weed control at 125 g/ha (goosegrass; [4]) | pest or weed control at 500 g/ha (ryegrass, Italian) | plant injury at 250 g/ha (rice) | pest or weed control at 250 g/ha (barnyardgrass) | pest or weed control at 500 g/ha (kochia [2]; [7]) | pest or weed control at 125 g/ha (galium; [8]) | plant injury at 125 g/ha (soybean) | pest or weed control at 125 g/ha (horseweed; [9]) | also measured |
| --- | --- | --- | --- | --- | --- | --- | --- | --- | --- | --- | --- | --- | --- | --- | --- | --- | --- | --- | --- | --- | --- |
| Cc1ccc(-n2cnc(C(C)(C)C)n2)cc1C(=O)N1C[C@H](C)Oc2c(Cl)cccc21 [Compound 76, [(2S)-8-Chloro-2,3-dihydro-2-methyl-4H-1,4-benzoxazin-4-yl][5-[3-(1,1-dimethylethyl)-1H-1,2,4-triazol-1-yl]-2-methylphenyl]methanone] | 100% | 60% | 90% | 90% | 100% | 100% | 98% | 40% | 50% | 70% | 100% | 80% | 100% | 80% | 0% | 25% | 90% |  |  |  | pest or weed control at 125 g/ha (galium; [3]): 100%; pest or weed control at 125 g/ha (horseweed; [6]): 70%; pest or weed control at 500 g/ha (goosegrass; [5]): 100%; pest or weed control at 125 g/ha (kochia [2]; [7]): 90% |
| Cc1ccc(-n2ncnc2C)cc1C(=O)N1C[C@H](C)Oc2c(Cl)cccc21 (single isomer, unassigned) [Compound 126] | 70% | 0% |  | 60% |  | 60% | 0% | 0% |  | 0% |  | 40% | 20% | 50% | 0% | 0% | 20% | 50% | 40% | 0% | plant injury at 500 g/ha (wheat; [4]): 30%; pest or weed control at 500 g/ha (foxtail, giant; [4]): 100%; Corn plant response rating (crop injury, 0 = no effect, 100 = complete kill) at 500 g/ha (corn; [4]): 40%; pest or weed control at 500 g/ha (kochia [1]; [4]): 0%; pest or weed control at 500 g/ha (goosegrass; [4]): 90%; pest or weed control at 125 g/ha (ryegrass, Italian): 0%; pest or weed control at 125 g/ha (kochia [2]; [10]): 10% |
| Cc1cccc2c1O[C@@H](C)CN2C(=O)c1cccc(-n2cnc(C3COC3)n2)c1 [Compound 109, [(2S)-2,3-Dihydro-2,8-dimethyl-4H-1,4-benzoxazin-4-yl][3-[3-(3-oxetanyl)-1H-1,2,4-triazol-1-yl]phenyl]methanone] | 100% | 40% | 90% | 100% | 100% | 100% | 98% | 40% | 70% | 60% | 90% | 30% |  | 100% | 0% | 40% | 90% | 70% | 100% | 10% | pest or weed control at 125 g/ha (ryegrass, Italian): 50%; pest or weed control at 125 g/ha (oat, wild; 125 g ai/ha, visual injury after 10 days, 0 to 100 scale, 0 is no effect, 100 is complete control): 50%; pest or weed control at 500 g/ha (oat, wild; 500 g ai/ha, 0 to 100 scale (0 no effect, 100 complete control), 10 days): 90%; pest or weed control at 125 g/ha (kochia [2]; [10]): 70% |
